From ChEMBL document CHEMBL2074413, “Effect of cisplatin-induced acute renal failure on bioavailability and intestinal secretion of quinolone antibacterial drugs in rats” (Pharm Res, 2004)

Assays:
Type in all cases: functional, cell-based
[1] = molecular target: T1, ATP-dependent translocase ABCB1 (Homo sapiens, UniProt P08183); test: TP_TRANSPORTER: transepithelial transport (basal to apical) of Ciprofloxacin at 2uM in LLC-GA5-COL150 cells; conditions: pig, llc-ga5-col150, 2 µM
[2] = molecular target: T1, ATP-dependent translocase ABCB1; test: TP_TRANSPORTER: transepithelial transport (basal to apical) of Digoxin at a concentration of 58.8nM in LLC-GA5-COL150 cells; conditions: pig
[3] = molecular target: T1, ATP-dependent translocase ABCB1; test: TP_TRANSPORTER: transepithelial transport (basal to apical) of Grepafloxacin at a concentration of 5uM in LLC-GA5-COL150 cells; conditions: pig, llc-ga5-col150, 5 µM
[4] = molecular target: T1, ATP-dependent translocase ABCB1; test: TP_TRANSPORTER: transepithelial transport (basal to apical) of Levofloxacin at a concentration of 5uM in LLC-GA5-COL150 cells; conditions: pig, llc-ga5-col150, 5 µM

T1 sequence (P08183 whole entry): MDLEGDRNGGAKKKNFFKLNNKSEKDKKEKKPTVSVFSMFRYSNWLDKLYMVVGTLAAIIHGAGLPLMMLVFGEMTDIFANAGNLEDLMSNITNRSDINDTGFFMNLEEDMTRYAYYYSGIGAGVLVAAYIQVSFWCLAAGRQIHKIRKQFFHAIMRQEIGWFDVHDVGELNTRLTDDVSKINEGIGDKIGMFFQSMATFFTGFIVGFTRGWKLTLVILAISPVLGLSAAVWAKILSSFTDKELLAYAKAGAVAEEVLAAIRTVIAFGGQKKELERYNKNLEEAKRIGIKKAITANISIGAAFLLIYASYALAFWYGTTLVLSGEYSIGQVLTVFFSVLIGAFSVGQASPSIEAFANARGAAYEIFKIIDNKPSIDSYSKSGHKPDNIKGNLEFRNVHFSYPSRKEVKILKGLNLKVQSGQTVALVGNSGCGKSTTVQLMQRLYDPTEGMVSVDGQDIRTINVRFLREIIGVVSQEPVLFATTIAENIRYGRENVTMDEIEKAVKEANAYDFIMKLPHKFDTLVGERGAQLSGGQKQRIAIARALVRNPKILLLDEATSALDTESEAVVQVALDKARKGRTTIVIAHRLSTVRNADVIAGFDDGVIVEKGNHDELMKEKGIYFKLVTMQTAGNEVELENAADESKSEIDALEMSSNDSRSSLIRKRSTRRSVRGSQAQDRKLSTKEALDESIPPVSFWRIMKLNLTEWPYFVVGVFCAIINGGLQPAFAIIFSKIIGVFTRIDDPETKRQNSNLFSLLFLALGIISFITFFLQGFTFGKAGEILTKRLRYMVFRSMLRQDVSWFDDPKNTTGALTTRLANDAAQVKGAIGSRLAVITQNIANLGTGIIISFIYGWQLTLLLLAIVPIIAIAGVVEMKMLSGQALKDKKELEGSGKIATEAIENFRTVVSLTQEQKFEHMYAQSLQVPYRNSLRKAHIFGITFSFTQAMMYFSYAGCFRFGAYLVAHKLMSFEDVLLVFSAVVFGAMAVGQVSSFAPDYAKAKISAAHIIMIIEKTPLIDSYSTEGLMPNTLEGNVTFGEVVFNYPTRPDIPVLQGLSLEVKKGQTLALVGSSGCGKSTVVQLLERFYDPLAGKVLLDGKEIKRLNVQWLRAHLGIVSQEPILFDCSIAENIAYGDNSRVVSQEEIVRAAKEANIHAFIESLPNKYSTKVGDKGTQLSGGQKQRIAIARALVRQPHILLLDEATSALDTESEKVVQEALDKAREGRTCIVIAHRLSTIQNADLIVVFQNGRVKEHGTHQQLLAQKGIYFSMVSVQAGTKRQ

SMILES: O=C(O)c1cn(C2CC2)c2cc(N3CCNCC3)c(F)cc2c1=O [CIPROFLOXACIN]
- Activity [1]: is not a substrate [-]

SMILES: C[C@H]1O[C@@H](O[C@H]2[C@@H](O)C[C@H](O[C@H]3[C@@H](O)C[C@H](O[C@H]4CC[C@@]5(C)[C@H](CC[C@@H]6[C@@H]5C[C@@H](O)[C@]5(C)[C@@H](C7=CC(=O)OC7)CC[C@]65O)C4)O[C@@H]3C)O[C@@H]2C)C[C@H](O)[C@@H]1O [DIGOXIN]
- Activity [2]: substrate [+]

SMILES: Cc1c(F)c(N2CCNC(C)C2)cc2c1c(=O)c(C(=O)O)cn2C1CC1 (centres undefined) [GREPAFLOXACIN]
- Activity [3]: substrate [+]

SMILES: C[C@H]1COc2c(N3CCN(C)CC3)c(F)cc3c(=O)c(C(=O)O)cn1c23.C[C@H]1COc2c(N3CCN(C)CC3)c(F)cc3c(=O)c(C(=O)O)cn1c23.O [LEVOFLOXACIN]
- Activity [4]: substrate [+]
